Results from patent US11661398B2, “Cellular transport system for transferring a sulfonic acid construct carrying a cargo into the cytoplasm of a cell” (Scientist of Fortune, S.A., priority 2017, dated 2023).
“Also recorded” adds a separate entry of the source.

Assays:
PnGGT ΔN24 [1] = biological target: T1, PnGGT ΔN24 (Pseudomonas nitroreducens, UniProt E0D5C2); assay: Kinetic measurements with purified PnGGT ΔN24; format: biochemical; conditions: purified enzyme, 50 mM Tris-HCl (pH 9.0)
Protocol: (§1) For the experiments relating to the sulfonate based synthetic transport system, purification of PnGGT ΔN24 and PnGGT ΔN24 D405N containing an N-terminal 6×His-tag was performed according to previous reports (Van Dyke et al., 1992) using Ni-NTA Superflow (Qiagen, Hilden, Germany). For kinetic studies, PnGGT variants were purified with the aid of the 6×His-tag located at the N-terminal end of the large subunit following the same procedure. To exchange the buffer, purified proteins were dialyzed against 50 mM Tris/HCl (pH 7.0).
(§2) To determine the kinetic parameters of PnGGT ΔN24 and PnGGT ΔN24 D405N the purified enzymes were preincubated in 50 mM Tris-HCl (pH 9.0). To start the reaction, varying concentrations of the substrates L-glutamic acid γ-(3-carboxy-4-nitroanilide) or sulfobutanoyl-p-nitroanilide were added to the mixtures. The results were evaluated using GraphPad Prism (GraphPad Software, La Jolla, Calif., USA).

PnGGT ΔN24 D405N [2] = biological target: T2, PnGGT ΔN24 D405N (Pseudomonas nitroreducens, UniProt E0D5C2, D405N); assay: Kinetic measurements with purified PnGGT ΔN24 D405N; format: biochemical; conditions: purified enzyme, 50 mM Tris-HCl (pH 9.0)
T2 sequence (E0D5C2 with tags, fused parts or gaps D405N): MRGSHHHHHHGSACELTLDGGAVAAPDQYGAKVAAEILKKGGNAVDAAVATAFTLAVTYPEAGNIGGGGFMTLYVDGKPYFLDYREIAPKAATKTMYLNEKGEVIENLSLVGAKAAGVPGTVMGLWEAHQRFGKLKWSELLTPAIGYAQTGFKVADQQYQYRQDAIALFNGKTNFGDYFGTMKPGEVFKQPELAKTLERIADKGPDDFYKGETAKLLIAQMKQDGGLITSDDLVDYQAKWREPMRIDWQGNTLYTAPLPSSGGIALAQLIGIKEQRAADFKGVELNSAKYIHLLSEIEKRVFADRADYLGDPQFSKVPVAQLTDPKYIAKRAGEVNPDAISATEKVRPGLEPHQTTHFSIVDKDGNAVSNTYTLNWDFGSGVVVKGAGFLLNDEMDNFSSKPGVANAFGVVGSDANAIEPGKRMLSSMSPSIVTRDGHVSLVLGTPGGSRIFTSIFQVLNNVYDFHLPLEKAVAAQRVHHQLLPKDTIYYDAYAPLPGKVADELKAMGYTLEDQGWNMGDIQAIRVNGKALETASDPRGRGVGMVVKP
Protocol: as §1, §2

EcGGT ΔN24 = biological target: T3, EcGGT ΔN24 (Escherichia coli, UniProt P18956); assay: Colorimetric GGT assay in whole cell lysates; format: biochemical, E. coli; conditions: whole cell lysate, 4 mM substrate, 50 mM Tris-HCl (pH 9.0), 410 nm
T3 construct: made in house; host or cells: E. coli (pACT3 plasmid, IPTG induction)
Description: (§3) To test for the desired activity a colorimetric enzyme assay was chosen and the substrate sulfobutanoyl-p-nitroanilide was synthesized for this purpose. Hydrolysis of this colorless substrate by a GGT variant into sulfobutanoic acid and the yellow dye 4-nitroaniline can be quantified photometrically at 410 nm. For that, cytoplasmic GGT variants containing an N-terminal 6×His-tag were first expressed from E. coli (EcGGT ΔN24) and Pseudomonas nitroreducens (PnGGT ΔN24), as well as EcGGT ΔN24 D433N and the corresponding mutant variant PnGGT ΔN24 D405N. Position D405 of PnGGT was identified to fulfill the same function as position D433 of EcGGT by sequence alignment and homology modeling between EcGGT and PnGGT. Then the ability of whole cell lysates containing the respective enzymes was tested to hydrolyze L-glutamic acid γ-(3-carboxy-4-nitroanilide) or sulfobutanoyl-p-nitroanilide.

EcGGT ΔN24 D433N = biological target: T4, EcGGT ΔN24 D433N (Escherichia coli, UniProt P18956, D433N); assay: Colorimetric GGT assay in whole cell lysates; format: biochemical, E. coli; conditions: whole cell lysate, 4 mM substrate, 50 mM Tris-HCl (pH 9.0), 410 nm
T4 construct: made in house; host or cells: E. coli (pACT3 plasmid); assayed in whole cell lysate
Description: as §3

PnGGT ΔN24 [3] = biological target: T1, PnGGT ΔN24; assay: Colorimetric GGT assay in whole cell lysates; format: biochemical; conditions: whole cell lysate, 4 mM substrate, 50 mM Tris-HCl (pH 9.0), 410 nm
Description: as §3

PnGGT ΔN24 D405N [4] = biological target: T2, PnGGT ΔN24 D405N; assay: Colorimetric GGT assay in whole cell lysates / cell free extracts; format: biochemical; conditions: cell free extracts of strain TK018, 2 mM substrate (FIG. 22a)
Description: FIG. 22: Identification of GGT* activity and refactoring of the ssuABC operon. […] The release of 4-nitroaniline was quantified by measuring the absorption at 410 nm. (b) Plasmid map of the three-dimensional RBS-library for refactoring the ssuABC operon using 144 RBS variants per gene. RBS library sequences are underlined. Arrows point towards the final RBS sequences observed in plasmid pSsuABC. […] (e) Growth of strain TK088[pSsuABC]transformed with the empty vector pACT3 (black circles) or plasmid pPnGGT* (white circles) in liquid MS minimal medium supplemented with 0.5% glucose, 1 mM MgSO4, 0.4 mM L-leucine, 0.5 mM IPTG, 100 ng ml^−1 aTc and 0.5 mM sulfobutanoyl-L-histidine. Bars and dots from panels (a), (d) and (e) represent the average of three independent measurements with standard deviations shown as error bars.
To test for the desired activity a colorimetric enzyme assay was chosen and the substrate sulfobutanoyl-p-nitroanilide was synthesized for this purpose. Hydrolysis of this colorless substrate by a GGT variant into sulfobutanoic acid and the yellow dye 4-nitroaniline can be quantified photometrically at 410 nm. For that, cytoplasmic GGT variants containing an N-terminal 6×His-tag were first expressed from E. coli (EcGGT ΔN24) and Pseudomonas nitroreducens (PnGGT ΔN24), as well as EcGGT ΔN24 D433N and the corresponding mutant variant PnGGT ΔN24 D405N. […]

PnGGT* = biological target: T5, PnGGT* (Pseudomonas nitroreducens, UniProt E0D5C2, D405N); assay: Sulfobutanoyl-L-leucine hydrolysis kinetics coupled to branched-chain amino acid kit; format: biochemical; conditions: 50 mM Tris/HCl (pH 7.0)
T5 sequence (E0D5C2 25-556 D405N limits assumed): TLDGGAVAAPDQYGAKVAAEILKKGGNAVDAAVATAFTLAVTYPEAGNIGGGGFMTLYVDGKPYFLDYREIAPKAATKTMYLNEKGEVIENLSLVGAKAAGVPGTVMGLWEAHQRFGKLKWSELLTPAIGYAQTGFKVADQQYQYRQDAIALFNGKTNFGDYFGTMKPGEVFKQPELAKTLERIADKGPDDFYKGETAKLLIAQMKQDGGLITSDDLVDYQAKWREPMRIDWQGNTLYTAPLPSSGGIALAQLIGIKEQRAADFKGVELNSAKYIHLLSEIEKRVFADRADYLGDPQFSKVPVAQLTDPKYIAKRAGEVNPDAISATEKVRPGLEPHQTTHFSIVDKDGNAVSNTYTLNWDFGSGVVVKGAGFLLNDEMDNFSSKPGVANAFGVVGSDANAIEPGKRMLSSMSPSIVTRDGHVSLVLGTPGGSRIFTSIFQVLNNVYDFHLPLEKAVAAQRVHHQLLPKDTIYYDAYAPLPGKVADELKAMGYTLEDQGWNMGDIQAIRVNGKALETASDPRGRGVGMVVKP
Protocol: (§4) FIG. 32. […] Due to the unknown composition of the kit, absolute quantification of leucine was not possible and the results relating to reaction rates are plotted as changes in absorbance over time. […] (b) Kinetics of PnGGT* P505T were determined with the same substrate concentrations and buffer as for PnGGT*. […] Fitting of the kinetic data was performed with SigmaPlot v.12.2. Dots represent the average of three independent measurements with standard deviations shown as error bars.
(§5) For that, 50 μL of the BCAA reaction mix containing 46 μL BCAA assay buffer, 2 μL BCAA enzyme mix and 2 μL WST substrate mix were pre-incubated with 35 μL BCAA assay buffer and 5 μL purified PnGGT* (final concentration approximately 0.05 mg mL-1) at 37° C. […] The reaction rate of PnGGT* variants was determined as the specific difference in absorption over time (ΔA (450 nm) per minute per mg of purified protein).

PnGGT* D385Y = assay: as above; format: biochemical, Pseudomonas nitroreducens; conditions: 50 mM Tris/HCl (pH 7.0), 10-1000 μM substrate
Protocol: as §4, §5

PnGGT* P505T = assay: as above; format: biochemical, Pseudomonas nitroreducens; conditions: 50 mM Tris/HCl (pH 7.0)
Protocol: as §4, §5

BW25113 ΔleuB (TK080) = assay: Growth on different sulfur sources; format: cell-based, E. coli; conditions: 1 mM sulfur source, minimal medium, 0.5% glucose, 0.4 mM leucine
Protocol: FIG. 21: Growth of E. coli on sulfonates. Strains TK080 (a; BW25113 ΔleuB) and TK082 (b; BW25113 ΔleuB ΔssuEADCB ΔtauD) were grown in MS minimal medium supplemented with 0.5% glucose, 0.4 mM L-leucine, 1 mM MgCl2 and 1 mM of a sulfur source. TK080 was able to use the majority of the tested sulfur sources with a similar efficiency as sulfate. […] Dots represent the average of three independent measurements with standard deviations shown as error bars.
(§6) For the experiments relating to the sulfonate based synthetic transport system, unless stated otherwise, growth experiments in selective medium were carried out in sulfur free MS minimal medium (4 mM citric acid, 1 mM MgCl2, 20 mM NH4Cl, 50 mM KH2PO4 and 1×NTA mix (10 μM nitrilotriacetic acid, 3 μM CaCl2, 3 μM FeCl3, 1 μM MnCl2, 0.3 μM ZnCl2, 0.3 μM H3B3, 0.3 μM CrC3, 0.3 μM COCl2, 0.3 μM CuCl2, 0.3 μM Ni2C, 0.3 μM Na2MoO4, 0.3 μM Na2SeO3)) supplemented with 0.5% glucose. MgSO4 (1 mM), MgCl2 (1 mM), L-leucine (0.4 mM), IPTG (0.5 mM), aTc (100 ng mL-1), nicotinic acid (various concentrations), 3-picolylamine (various concentrations) and sulfonates (various concentrations) as indicated in the text. […] Synthesis schemes for sulfobutanoyl-p-nitroanilide and other sulfonates are given below.
The sulfonate transporters SsuABC and TauABC transport a wide variety of sulfonate compounds (Eichhorn et al., 2000) and can thus be exploited for the present synthetic transport system. As such, the uptake and utilization of sulfobutanoyl-L-leucine was assessed. The leucine auxotrophic strain BW25113 ΔleuB was tested for growth in minimal medium supplemented with 0.5% glucose, 0.4 mM leucine, 0.4 mM isoleucine and 1 mM of a sulfur-containing compound as the sole sulfur source.

BW25113 ΔleuB = assay: Intracellular release of leucine from sulfobutanoyl-L-leucine, growth on plates; format: cell-based, E. coli; conditions: 2 mM compound, 0.5 mM taurine
Protocol: as §6
It was then tested if sulfobutanoyl-L-leucine can also be hydrolyzed intracellularly by GGT*. Strains BW25113 ΔleuB or BW25113 ΔleuB ΔssuD were transformed either with the empty vector pACT3 or the expression plasmids pACT3/EcGGT_ΔN24_D433N and pACT3/PnGGT_ΔN24_D405N. […] Taurine is taken up exclusively via TauABC and solely desulfonated by TauD. Addition of an excess of taurine should therefore not lead to competition with sulfobutanoyl-L-leucine for the SsuABC transporter and prevent TauD from using sulfobutanoyl-L-leucine as substrate, ensuring that the majority of sulfobutanoyl-L-leucine is hydroluzed by GGT*.

TK082[pSsuABC] = assay: Growth of leucine auxotrophic strain in liquid medium; format: cell-based, E. coli; conditions: liquid MS minimal medium, 0.25 mM compound, pACT3 versus pPnGGT*

SMILES | Km (PnGGT ΔN24 [1]) [mM] | Vmax (PnGGT ΔN24 [1]) [µmol/min/mg] | kcat (PnGGT ΔN24 [1]) [s⁻¹] | Km (PnGGT ΔN24 D405N [2]) [mM] | Vmax (PnGGT ΔN24 D405N [2]) [µmol/min/mg] | kcat (PnGGT ΔN24 D405N [2]) [s⁻¹] | hydrolysis of substrate (EcGGT ΔN24) | hydrolysis of substrate (EcGGT ΔN24 D433N) | hydrolysis of substrate (PnGGT ΔN24 [3]) | reactivity of PnGGT* to substrate (PnGGT ΔN24 D405N [4]) | K value relative to K value with sulfobutanoyl-p-nitroanilide (PnGGT*) | improvement of Vmax over PnGGT* (PnGGT* D385Y) [fold] | increase in Vmax in comparison to PnGGT* (PnGGT* P505T) [%] | reduction in KM in comparison to PnGGT* (PnGGT* P505T) [%] | growth with compound as sole sulfur source (BW25113 ΔleuB (TK080)) | growth with compound as leucine source (BW25113 ΔleuB; expressing EcGGT ΔN24 D433N) | growth with compound as leucine source (BW25113 ΔleuB; expressing PnGGT ΔN24 D405N) | growth with compound as leucine source (BW25113 ΔleuB; pACT3 empty vector control) | growth with compound as sole leucine source (TK082[pSsuABC])
N[C@@H](CCC(=O)Nc1ccc([N+](=O)[O-])c(C(=O)O)c1)C(=O)O [γ-Glu-p-nitroanilide, L-glutamic acid γ-(3-carboxy-4-nitroanilide), reference compound] | 0.105 | 34.94 ± 0.47 | 34.5 | 6.5 | 1.79 ± 0.61 | 1.8 | able to hydrolyze | still had detectable activity | able to hydrolyze | no longer possesses significant reactivity | – | – | – | – | – | – | – | – | –
CC(C)C[C@H](NC(=O)CCCS(=O)(=O)O)C(=O)O [sulfobutanoyl-L-leucine] | – | – | – | – | – | – | – | – | – | – | approximately three times higher | 1.55 | 27 | 46 | comparable to growth on other sulfonates; also recorded: comparable efficiencies | slower growth | grows best | weak growth | only grew when cells were synthesizing PnGGT*
